Measurements from patent publication US9181269B2, “Enantiomers of fluconazole analogues containing thieno-[2,-3-D]pyrimidin-4(3H)-one moiety as antifungal agents” (FDC Limited, priority 2011, dated 2015).
Values after ≈ are worked out from the molar mass of the structure shown.

Experiments:
C. tropicalis ATCC 750 = assay: MIC by broth dilution, CT01; format: cell-based; details: RPMI 1640 pH 7.0, 48 hours; for MIC50: Candida tropicalis, ATCC750, concentration exhibiting more than 50% inhibition vs positive control, read-out: MIC50 obtained by broth dilution method, MIC
Protocol: (§1) The compounds of Formula (1a) and (1b) were tested for antifungal activity against various strains of Candida(CA 01: Candida albicans ATCC 24433, CA 02: C. albicans ATCC 10231, CA 03: C. albicans ATCC 2091, CA 04: C. albicans ATCC 90028, CG 01: C. glabrata ATCC 90030, CK 01: C. Krusei ATCC 6258, CT 01: C. tropicalis ATCC 750). In vitro evaluation of antifungal activity was performed by determining the minimum inhibitory concentration (MIC) following standard broth dilution methods (CLSI: Reference method for broth dilution antifungal susceptibility testing of yeasts; Approved standard, second edition M27-A2, 2002; CLSI: Reference method for broth dilution antifungal susceptibility testing of filamentous fungi; […]. Known anti-fungal agents like Fluconazole and Amphotericin-B were used as standards. End points were determined after 48 hours visually and by using spectrophotometer wherever necessary. The activity parameters are enumerated in Table 10: […]

C. glabrata ATCC 90030 = assay: MIC by broth dilution, CG01; format: cell-based; details: RPMI 1640 pH 7.0, 48 hours; for MIC50: Nakaseomyces glabratus, ATCC90030, concentration exhibiting more than 50% inhibition vs positive control, read-out: MIC50 obtained by broth dilution method, MIC
Protocol: as §1

[1] = test system: Candida albicans ATCC 24433; assay: MIC by broth dilution, CA01; format: cell-based; details: RPMI 1640 pH 7.0, 48 hours; for MIC50: Candida albicans, ATCC24433, concentration exhibiting more than 50% inhibition vs positive control, read-out: MIC50 obtained by broth dilution method, MIC
Protocol: as §1

C. albicans ATCC 10231 = assay: MIC by broth dilution, CA02; format: cell-based, Candida albicans; details: RPMI 1640 pH 7.0, 48 hours; for MIC50: Candida albicans, ATCC10231, concentration exhibiting more than 50% inhibition vs positive control, read-out: MIC50 obtained by broth dilution method, MIC
Protocol: as §1

C. albicans ATCC 90028 = assay: MIC by broth dilution, CA04; format: cell-based, Candida albicans; details: RPMI 1640 pH 7.0, 48 hours; for MIC50: Candida albicans, ATCC90028, concentration exhibiting more than 50% inhibition vs positive control, read-out: MIC50 obtained by broth dilution method, MIC
Protocol: as §1

C. Krusei ATCC 6258 = assay: MIC by broth dilution, CK01; format: cell-based; details: RPMI 1640 pH 7.0, 48 hours; for MIC50: Pichia kudriavzevii, ATCC6258, concentration exhibiting more than 50% inhibition vs positive control, read-out: MIC50 obtained by broth dilution method, MIC
Protocol: as §1

C. albicans ATCC 2091 = assay: MIC by broth dilution, CA03; format: cell-based, Candida albicans; details: RPMI 1640 pH 7.0, 48 hours; for MIC50: Candida albicans, ATCC2091, concentration exhibiting more than 50% inhibition vs positive control, read-out: MIC50 obtained by broth dilution method, MIC
Protocol: as §1

[2] = concentration exhibiting complete inhibition

MIC in μg/ml (Amphotericin B) (C. tropicalis ATCC 750; [2]) [µg/mL]	MIC in μg/ml (Amphotericin B) (C. glabrata ATCC 90030; [2]) [µg/mL]	MIC in μg/ml (Amphotericin B) [1, 2] [µg/mL]	MIC in μg/ml (Amphotericin B) (C. albicans ATCC 10231; [2]) [µg/mL]	MIC in μg/ml (Amphotericin B) (C. albicans ATCC 90028; [2]) [µg/mL]	MIC in μg/ml (Amphotericin B) (C. Krusei ATCC 6258; [2]) [µg/mL]	MIC in μg/ml (Amphotericin B) (C. albicans ATCC 2091; [2]) [µg/mL]	MIC50 (C. tropicalis ATCC 750) [µg/mL]	MIC50 (C. glabrata ATCC 90030) [µg/mL]	MIC50 [1] [µg/mL]	MIC50 (C. albicans ATCC 10231) [µg/mL]	MIC50 (C. albicans ATCC 90028) [µg/mL]	MIC50 (C. Krusei ATCC 6258) [µg/mL]	MIC50 (C. albicans ATCC 2091) [µg/mL]	SMILES
–	–	–	–	–	–	–	0.25	0.12	0.06	0.12	0.12	1	0.25	CCCCCCc1cc2c(=O)n(C[C@](O)(Cn3cncn3)c3ccc(F)cc3F)cnc2s1 [Formula 1b-01, (S)-3-[2-(2,4-Difluorophenyl)-2-hydroxy-3-[1,2,4]triazol-1-yl-propyl]-6-(n-hexyl)-thieno[2,3-d]pyrimidin-4(3H)-one]
–	–	–	–	–	–	–	0.06	0.06	0.03	0.12	0.03	1	0.12	CCCCCc1cc2c(=O)n(C[C@](O)(Cn3cncn3)c3ccc(F)cc3F)cnc2s1 [Formula 1b-02, (S)-3-[2-(2,4-difluorophenyl)-2-hydroxy-3-(1H-1,2,4-triazol-1-yl)propyl]-6-n-pentylthieno[2,3-d]pyrimidin-4(3H)-one]
–	–	–	–	–	–	–	1	0.25	0.12	0.5	0.25	1	0.5	CCCCCCCc1cc2c(=O)n(C[C@](O)(Cn3cncn3)c3ccc(F)cc3F)cnc2s1 [Formula 1b-03, (S)-3-[2-(2,4-Difluorophenyl)-2-hydroxy-3-[1,2,4]triazol-1-yl-propyl]-6-n-heptyl-thieno[2,3-d]pyrimidin-4(3H)-one]

Continued, molecule first:

SMILES	MIC in μg/ml (Amphotericin B) (C. tropicalis ATCC 750; [2]) [µg/mL]	MIC in μg/ml (Amphotericin B) (C. glabrata ATCC 90030; [2]) [µg/mL]	MIC in μg/ml (Amphotericin B) [1, 2] [µg/mL]	MIC in μg/ml (Amphotericin B) (C. albicans ATCC 10231; [2]) [µg/mL]	MIC in μg/ml (Amphotericin B) (C. albicans ATCC 90028; [2]) [µg/mL]	MIC in μg/ml (Amphotericin B) (C. Krusei ATCC 6258; [2]) [µg/mL]	MIC in μg/ml (Amphotericin B) (C. albicans ATCC 2091; [2]) [µg/mL]	MIC50 (C. tropicalis ATCC 750) [µg/mL]	MIC50 (C. glabrata ATCC 90030) [µg/mL]	MIC50 [1] [µg/mL]	MIC50 (C. albicans ATCC 10231) [µg/mL]	MIC50 (C. albicans ATCC 90028) [µg/mL]	MIC50 (C. Krusei ATCC 6258) [µg/mL]	MIC50 (C. albicans ATCC 2091) [µg/mL]
C[C@@H]1[C@H](O)[C@@H](C)/C=C/C=C/C=C/C=C/C=C/C=C/C=C/[C@H](O[C@@H]2O[C@H](C)[C@@H](O)[C@H](N)[C@@H]2O)C[C@@H]2O[C@](O)(C[C@@H](O)C[C@@H](O)[C@H](O)CC[C@@H](O)C[C@@H](O)CC(=O)O[C@H]1C)C[C@H](O)[C@H]2C(=O)O [AMB, Amphotericin-B, reference compound]	0.5 (≈ 0.541 µM)	0.25 (≈ 0.271 µM)	0.25 (≈ 0.271 µM)	0.5 (≈ 0.541 µM)	0.5 (≈ 0.541 µM)	0.5 (≈ 0.541 µM)	0.5 (≈ 0.541 µM)	–	–	–	–	–	–	–
OC(Cn1cncn1)(Cn1cncn1)c1ccc(F)cc1F [FLU, Fluconazole]	–	–	–	–	–	–	–	2 (≈ 6.53 µM)	4 (≈ 13.1 µM)	1 (≈ 3.27 µM)	1 (≈ 3.27 µM)	0.5 (≈ 1.63 µM)	64 (≈ 209 µM)	0.5 (≈ 1.63 µM)
CCCCCc1cc2c(=O)n(C[C@@](O)(Cn3cncn3)c3ccc(F)cc3F)cnc2s1 [Formula 1a-02, (R)-3-[2-(2,4-difluorophenyl)-2-hydroxy-3-(1H-1,2,4-triazol-1-yl)propyl]-6-n-pentylthieno[2,3-d]pyrimidin-4(3H)-one]	–	–	–	–	–	–	–	16	4	4	8	4	> 16	8
CCCc1cc2c(=O)n(C[C@](O)(Cn3cncn3)c3ccc(F)cc3F)cnc2s1 [Formula 1b-04, (S)-3-[2-(2,4-Difluorophenyl)-2-hydroxy-3-[1,2,4]triazol-1-yl-propyl]-6-(n-propyl)-thieno[2,3-d]pyrimidin-4(3H)-one]	–	–	–	–	–	–	–	0.06	0.03	0.03	0.06	0.03	1	0.03
